The results in this text go back to patent US7311892B2, “Multidrug multiligand conjugates for targeted drug delivery” (priority 2001, dated 2007).

Usually inhibition stands for the relative decrease from the control value, in per cent.

Assay [1] concerns NCI-H1299 non-small cell lung cancer cells. The assay can be described thus: Cell proliferation assay. The format is cell-based. The following applies: Homo sapiens, 50 nM, 3 hours exposure, then drug-free medium, cells counted after 96 hours, normalized to untreated cells, quadruplicate, read-out: growth inhibition. As to the method:
Cells were grown as described in Example 2 and exposed to various treatments. The cells were left untreated or treated with 50 nM of the PTX-BBN[7-13]-BTN-SaV conjugate, unconjugated paclitaxel (PTX), the biotin/streptavidin complex (BTN/SaV) or a mixture of BTN/SaV and PTX. After 3 hours, the media containing these additives was removed and replaced with fresh media. After 96 hours, the cells were removed from the 24 well plates by treatment with trypsin/EDTA and counted with a Coulter particle counter. All treatments were done in quadruplicate and the cell counts were normalized to the untreated cells.
To evaluate the growth inhibitory effects of the PTX-BBN[7-13]-BTN/SaV conjugate, experiments were designed to compare the effect of the conjugate with the unconjugated paclitaxel, the BTN/SaV complex and a mixture of free PTX and the BTN/SaV complex (FIG. 5).
The HI299 cells were plated in 24 well plates at a density of 10,000 cells/well and allowed to adhere for 24 hours. The cells were treated with 50 nM of the following: 1) no treatment (Untreated); 2) unconjugated paclitaxel(PTX); 3) biotin/streptavidin complex (BTN/SaV); 4) a mixture of BTN/SaV and PTX; and 5) the PTX-BBN[7-13]-BTN/SaV conjugate (Conjugate) described in FIG. 1A. […] After 96 hours, the cells were removed from the 24 well plates by treatment with trypsin/EDTA and counted with a Coulter particle counter. […]

For assay [2] the test system is unchanged. The assay can be described thus: Apoptosis induction assay (Annexin V-FITC, flow cytometry). The class given is cell-based. The following applies: 50 nM, 3 hours exposure, then drug-free medium; analysed after 96 hours; triplicate. The procedure: Apoptosis was measured by an Annexin V-FITC kit. […] 2.3%, 2.5% and 2.4% induction for untreated cells, free PTX, the BTN/SaV complex and the BTN/SaV+PTX controls, respectively.
FIG. 6 illustrates the results of an apoptosis induction assay, illustrating NCI-HI299 cells are induced to undergo apoptosis specifically in response to the PTX-BBN[7-13]-BTN-SaV conjugate. Cells were grown as described above and in Example 3 and left untreated or treated with 50 nM of the PTX-BBN[7-13]-BTN-SaV conjugate, unconjugated paclitaxel (PTX), the biotin/streptavidin complex (BTN/SaV) or a mixture of BTN/SaV and PTX. After 3 hours, the media containing these additives was removed and replaced with fresh media. After 96 hours, the cells were removed from the 24 well plates by treatment with trypsin/EDTA and analyzed for Annexin V by flow cytometry using an Annexin V-FITC kit (Biovision, Palo Alto, Calif.). All treatments were done in triplicate and presented as the percentage of cells staining with Annexin V-FITC. […]
The HI299 cells were plated in 24 well plates at a density of 10,000 cells/well and allowed to adhere for 24 hours. […] After 96 hours, the cells were removed from the 24 well plates by treatment with trypsin/EDTA and analyzed for Annexin V by flow cytometry using an Annexin V-FITC kit (Biovision, Palo Alto, Calif.). […]

On to `CC(=O)O[C@H]1C(=O)[C@@]2(C)[C@H]([C@H](OC(=O)c3ccccc3)[C@]3(O)C[C@H](OC(=O)[C@H](O)[C@@H](NC(=O)c4ccccc4)c4ccccc4)C(C)=C1C3(C)C)[C@]1(OC(C)=O)CO[C@@H]1C[C@@H]2O` [free PTX, paclitaxel], for which, in assay [1], the inhibition at 0.05 µM worked out at 0%. Moreover, the “induction of apoptosis (percentage of cells staining with Annexin V-FITC)” value in assay [2] is ~2.3%.
